Where a name gives a salt, the structure may show the parent alone.
Test: In-vivo testing: plasma pharmacokinetics after single oral gavage of suspension in rats
Conditions: Sprague-Dawley, rat, 10 mg/kg

AUC(0-t): 2910 ng·h/mL
Cmax: 493 ng/mL
Tmax: 2 h
Compound: Cc1cn(-c2cc(NC(=O)c3ccc(C)c(Nc4nccc(-c5cccnc5)n4)c3)cc(C(F)(F)F)c2)cn1 [Nilotinib HCl monohydrate, 4-methyl-N-[3-(4-methylimidazol-1-yl)-5-(trifluoromethyl)phenyl]-3-[(4-pyridin-3-ylpyrimidin-2-yl)amino]benzamide]

— patent publication US20260115191A1, “Nilotinib Compositions with Enhanced Solubility” (Neoform Biopharmaceutical Limited, priority 2020, published 2026)
